Consider eleven compounds from patent US20180127464A1, “NOVEL EPHA4 INHIBITORS TARGETING ITS LIGAND BINDING DOMAIN” (Sanford-Burnham Medical Research Institute, priority 2015, published 2018).

Where a SMILES comes first, the peptide text is derived from it. [ ]: non-standard residue; d: D form. Trp(5-OH) = N[C@@H](Cc1c[nH]c2ccc(O)cc12)C(=O)O; Phe(4-Cl) = N[C@@H](Cc1ccc(Cl)cc1)C(=O)O; 4Pal = N[C@@H](Cc1ccncc1)C(=O)O; Ava = NCCCCC(=O)O

For one data set, the target named is EphA4 (Homo sapiens, UniProt P54764). Particulars: previously reported; cited from earlier work.
Sequence of EphA4 (P54764 20-986, species assumed): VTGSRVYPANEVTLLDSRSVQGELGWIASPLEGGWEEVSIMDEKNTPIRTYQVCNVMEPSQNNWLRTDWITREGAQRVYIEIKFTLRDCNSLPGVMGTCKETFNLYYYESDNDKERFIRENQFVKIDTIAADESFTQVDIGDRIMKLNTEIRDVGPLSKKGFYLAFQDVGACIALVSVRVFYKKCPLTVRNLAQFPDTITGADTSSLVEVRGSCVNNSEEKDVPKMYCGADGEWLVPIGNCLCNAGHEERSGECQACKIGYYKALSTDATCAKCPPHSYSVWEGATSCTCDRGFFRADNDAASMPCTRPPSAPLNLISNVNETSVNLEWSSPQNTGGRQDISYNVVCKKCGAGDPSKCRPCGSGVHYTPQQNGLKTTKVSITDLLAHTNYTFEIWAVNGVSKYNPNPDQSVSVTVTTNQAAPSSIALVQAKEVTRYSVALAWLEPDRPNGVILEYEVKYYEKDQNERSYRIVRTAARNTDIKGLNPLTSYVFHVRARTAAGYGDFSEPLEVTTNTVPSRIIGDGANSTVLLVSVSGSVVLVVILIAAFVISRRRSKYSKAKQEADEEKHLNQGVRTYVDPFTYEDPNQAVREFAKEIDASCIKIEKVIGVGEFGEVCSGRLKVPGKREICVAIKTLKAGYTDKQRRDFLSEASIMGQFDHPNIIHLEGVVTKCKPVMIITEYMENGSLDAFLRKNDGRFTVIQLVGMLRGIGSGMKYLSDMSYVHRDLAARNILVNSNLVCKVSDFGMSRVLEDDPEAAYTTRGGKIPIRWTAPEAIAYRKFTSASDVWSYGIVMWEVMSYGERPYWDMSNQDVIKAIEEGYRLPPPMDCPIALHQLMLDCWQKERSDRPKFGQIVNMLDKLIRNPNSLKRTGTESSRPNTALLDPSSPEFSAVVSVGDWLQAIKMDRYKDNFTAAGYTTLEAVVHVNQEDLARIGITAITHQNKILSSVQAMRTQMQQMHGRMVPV
Data set [1] addresses EphA4 ligand binding domain (UniProt P54764). Put plainly: FPA, displacement of FITC-KYL peptide from EphA4 LBD; grade legend: 5 µM ≤ C.
The target of data set [2] is T1, EphA4 LBD (Homo sapiens, UniProt P54764). Briefly: Fluorescence polarization assay (FPA), displacement of FITC-labeled KYL peptide. Particulars: PBS pH 7.2. Type of data set: binding. As for the experimental part:
Fluorescence Polarization Assay (FPA):
The EphA4 binding KYL peptide ([…], Murai et al. Mol. Cell. Neurosci. 2003, 24:1000-1011) was labeled at the N-terminus with fluorescein isothiocyanate (FITC) and purified by HPLC. For competitive binding assays, 1 μL of 200 μM EphA4 LBD was pre-incubated with the tested compounds at various concentrations in 98 μL PBS (pH=7.2) in 96-well black plates at room temperature for 10 min, and then 1 μL of 500 μM FITC labeled EphA4 peptide was added to produce a final volume of 100 μL. The KYL and DMSO were incubated in each assay as positive and negative controls, respectively. After 30 min of incubation at room temperature, the polarization values in millipolarization units were measured at excitation/emission wavelengths of 480/535 nm with a multilabel plate reader (PerkinElmer, Waltham, Mass., USA). Ki value was determined by fitting the experimental data to a Sigmoidal dose-response (variable slope) nonlinear regression model (GraphPad Prism version 5.01 for Windows, GraphPad Software, San Diego, Calif., USA).
(§1) (B) EphA4-LBD was dissolved in 50 mM potassium phosphate buffer (pH 6.5), containing 100 mM NaCl. ITC were measured.
Target sequence in this assay (P54764 30-209 limits assumed): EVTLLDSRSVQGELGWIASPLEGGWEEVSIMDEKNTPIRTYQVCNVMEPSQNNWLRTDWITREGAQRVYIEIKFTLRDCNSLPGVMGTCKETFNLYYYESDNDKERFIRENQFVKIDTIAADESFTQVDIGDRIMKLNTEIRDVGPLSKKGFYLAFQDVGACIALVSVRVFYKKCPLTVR

The target in data set [3] is T1, EphA4 LBD. Put plainly: Isothermal titration calorimetry (ITC). Type of data set: binding. Conditions: 25° C., PBS with 10% DMSO. As for the experimental part: Isothermal Titration Calorimetry (ITC):
(§2) isothermal titration calorimetry (ITC) to measure binding constant was performed on a Model ITC200 calorimeter from Microcal/GE Life Sciences. When indicated, measurements were performed in a reverse way—i.e., the protein was titrated into the compound solution. A total of 8 μl EphA4 solution (1.65 mM) was injected into the cell containing 165 µM of compound per injection. All titrations were performed at 25° C. in PBS buffer supplemented with 10% DMSO. Experimental data were analyzed using Microcal Origin software provided by the ITC manufacturer (Microcal).
as §1

For a further data set, the target named is EphA2 receptor (Homo sapiens, UniProt P29317). Briefly: ITC with EphA2 receptor. Type of data set: binding. Conditions: same experimental conditions as EphA4 ITC. As for the experimental part: as §2
Sequence of EphA2 receptor (P29317 24-976): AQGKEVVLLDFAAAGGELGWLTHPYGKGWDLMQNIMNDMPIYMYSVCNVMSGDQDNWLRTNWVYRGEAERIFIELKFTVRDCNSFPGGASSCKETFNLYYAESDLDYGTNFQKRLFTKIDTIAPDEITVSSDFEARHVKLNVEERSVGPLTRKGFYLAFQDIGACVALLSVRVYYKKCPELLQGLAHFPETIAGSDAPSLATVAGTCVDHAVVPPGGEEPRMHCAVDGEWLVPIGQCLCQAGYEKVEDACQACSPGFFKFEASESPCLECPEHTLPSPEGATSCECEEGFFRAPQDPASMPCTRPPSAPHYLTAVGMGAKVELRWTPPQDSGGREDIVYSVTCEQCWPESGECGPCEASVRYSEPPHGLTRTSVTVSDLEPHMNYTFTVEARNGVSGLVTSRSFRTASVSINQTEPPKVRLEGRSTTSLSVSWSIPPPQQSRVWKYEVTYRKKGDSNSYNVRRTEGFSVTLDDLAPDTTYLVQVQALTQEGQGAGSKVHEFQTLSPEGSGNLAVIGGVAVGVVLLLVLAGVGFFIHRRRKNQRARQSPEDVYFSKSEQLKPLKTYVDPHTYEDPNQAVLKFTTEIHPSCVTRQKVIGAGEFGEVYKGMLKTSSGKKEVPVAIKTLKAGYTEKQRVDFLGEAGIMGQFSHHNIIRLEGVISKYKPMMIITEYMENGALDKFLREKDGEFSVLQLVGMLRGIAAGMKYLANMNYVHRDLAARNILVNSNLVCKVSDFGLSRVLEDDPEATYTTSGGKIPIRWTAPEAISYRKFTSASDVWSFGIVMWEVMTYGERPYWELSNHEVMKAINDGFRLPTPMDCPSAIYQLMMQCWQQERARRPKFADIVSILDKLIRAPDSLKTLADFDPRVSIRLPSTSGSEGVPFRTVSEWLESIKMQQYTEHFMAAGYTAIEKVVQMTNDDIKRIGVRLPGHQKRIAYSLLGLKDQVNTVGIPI
Data set [4] relates to SOD1(G93A)-mutant mice. Briefly: Pilot study for toxicity and dose in SOD1(G93A)-mutant mice. Conditions: 2 mice. Type of data set: in vivo.
Another data set has as its target 15N-labeled EphA4-LBD (Homo sapiens, UniProt P54764). Briefly: 2D-[15N,1H]-HSQC NMR detection of binding. Particulars: 300 K. The text has this: NMR spectra of ^15N-labeled EphA4-LBD were acquired on 700 MHz Bruker Avance spectrometer equipped with TCI cryoprobe. All NMR data were processed and analyzed using TOPSPIN2.1 (Bruker Biospin Corp., Billerica, Mass., USA) and SPARKY3.1 (University of California, San Francisco, Calif., USA).

For data set [5], the system named is SOD1(G93A)-mutant mice. Put plainly: In vivo efficacy in an animal model of ALS. As for the experimental part:
Equal number of SOD1(G93A)-mutant mice of the same gender from same litter were randomly divided into two groups (n=12).
FIG. 3. […] The data were analyzed using the Kaplan-Meier method. Animal studies. Equal number of SOD1(G93A)-mutant mice of the same gender from same litter were randomly divided into two groups. […] Animals were assessed daily for the time of onset of hind limb tremor and loss of splay reflex. The endpoint was designated as the point when the mouse could no longer roll over within 10 s after being pushed onto its side. At this stage, mice were killed. Disease onset and survival time were compared using the Kaplan-Meier method. […] Values are given as mean±SD. Preliminary BBB penetration and PK studies were performed by Agilux (Cambridge, Mass.) and in house.

For data set [6], the target named is EphA4 ligand binding domain (UniProt P54764). Briefly: ITC. For orientation: In ITC the heat of successive injections is recorded.
Sequence of EphA4 ligand binding domain (P54764 29-209 limits assumed): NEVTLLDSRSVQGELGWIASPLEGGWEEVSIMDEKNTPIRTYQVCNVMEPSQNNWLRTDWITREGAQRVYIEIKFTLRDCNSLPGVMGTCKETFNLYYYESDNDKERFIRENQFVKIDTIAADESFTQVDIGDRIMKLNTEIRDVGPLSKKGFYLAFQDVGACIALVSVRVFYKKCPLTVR
Another data set concerns the target EphA4-LBD mutant 159A (UniProt P54764). Briefly: ITC.
The target in the next data set is EphA4-LBD mutant 159G (UniProt P54764). Briefly: ITC.
Sequence of EphA4-LBD mutant 159G (P54764 other isoform, or with tags, fused parts or gaps mutant limits assumed): as the sequence (P54764 29-209 limits assumed) above, with I31G counted along it
The target of data set [7] is EphA4 ligand binding domain (UniProt P54764). Briefly: FPA, displacement of FITC-KYL peptide from EphA4 LBD; repeated experiments.
Data set [8] has the same target. Briefly: ITC; grade legend: A < 1 µM.

Sequence of EphA4-LBD mutant 159A (P54764 other isoform, or with tags, fused parts or gaps mutant limits assumed): as the sequence (P54764 29-209 limits assumed) above, with I31A counted along it
Sequence of 15N-labeled EphA4-LBD (P54764 30-209 limits assumed): as the sequence (P54764 30-209 limits assumed) above

Turning to KYLPYWPVLSSL, the “Kd for EphA4 (reported peptides)” value at EphA4 is “low micromolar range”.
A word on the Ki: it is a measure of affinity in units of concentration, obtained from inhibition or displacement. For the compound “Compound 11: 4-amino-N-((S)-1-((S)-3-(4-chlorophenyl)-1-((S)-1-(2-(naphthalen-1-yl)ethylamino)-1-oxo-3-(pyridin-4-yl)propan-2-ylamino)-1-oxopropan-2-ylamino)-3-(5-hydroxy-1H-indol-3-yl)-1-oxopropan-2-yl)butanamide (peptide)”, in data set [1], the Ki was > 5 µM.
One may read the Kd as the constant that tells how readily two partners part at equilibrium. A low value points to a tighter complex. With `NCCCC(=O)N[C@@H](Cc1c[nH]c2ccc(O)cc12)C(=O)N[C@@H](Cc1ccc(Cl)cc1)C(=O)N[C@@H](Cc1ccncc1)C(=O)NCCc1c[nH]c2ccc(O)cc12` [Compound 8, 4-amino-N-((S)-1-((S)-3-(4-chlorophenyl)-1-((S)-1-(2-(5-hydroxy-1H-indol-3-yl)ethylamino)-1-oxo-3-(pyridin-4-yl)propan-2-ylamino)-1-oxopropan-2-ylamino)-3-(5-hydroxy-1H-indol-3-yl)-1-oxopropan-2-yl)butanamide], at EphA4 LBD [2], the Ki is 1 to 5 µM. The compound further came in with a Kd at EphA4 LBD [3] of 1 to 5 µM.
Take `NCCCCC(=O)N[C@@H](Cc1c[nH]c2ccc(O)cc12)C(=O)N[C@@H](Cc1ccc(Cl)cc1)C(=O)N[C@@H](Cc1ccncc1)C(=O)N[C@H](Cc1c[nH]c2ccccc12)C(N)=O` [Compound 4, 5-amino-N-((S)-1-((S)-1-((S)-1-((R)-1-amino-3-(1H-indol-3-yl)-1-oxopropan-2-ylamino)-1-oxo-3-(pyridin-4-yl)propan-2-ylamino)-3-(4-chlorophenyl)-1-oxopropan-2-ylamino)-3-(5-hydroxy-1H-indol-3-yl)-1-oxopropan-2-yl)pentanamide] (H-[Ava][Trp(5-OH)][Phe(4-Cl)][4Pal][dW]-NH2): at EphA4 LBD [2], the Ki was in the range of 1 to 5 µM.
Turning to `NCCCC(=O)N[C@@H](Cc1c[nH]c2ccc(O)cc12)C(=O)N[C@@H](Cc1ccc(Cl)cc1)C(=O)N[C@@H](Cc1ccncc1)C(=O)NCCc1c[nH]c2ccccc12` [Compound 5, N-((S)-1-((S)-1-((S)-1-(2-(1H-indol-3-yl)ethylamino)-1-oxo-3-(pyridin-4-yl)propan-2-ylamino)-3-(4-chlorophenyl)-1-oxopropan-2-ylamino)-3-(5-hydroxy-1H-indol-3-yl)-1-oxopropan-2-yl)-4-aminobutanamide], the Ki on EphA4 LBD [2] was in the range of 1 to 5 µM. The Kd on EphA4 LBD [3] lay in the range of 1 to 5 µM.
At EphA4 LBD [2], `NCCCC(=O)N[C@@H](Cc1c[nH]c2ccc(O)cc12)C(=O)N[C@@H](Cc1ccc(Cl)cc1)C(=O)N[C@@H](Cc1ccncc1)C(=O)NCCc1c[nH]c2ccc(Cl)cc12` [Compound 9, 4-amino-N-((S)-1-((S)-1-((S)-1-(2-(5-chloro-1H-indol-3-yl)ethylamino)-1-oxo-3-(pyridin-4-yl)propan-2-ylamino)-3-(4-chlorophenyl)-1-oxopropan-2-ylamino)-3-(5-hydroxy-1H-indol-3-yl)-1-oxopropan-2-yl)butanamide] came in with a Ki of 1 to 5 µM.
As for `NCCCC(=O)N[C@@H](Cc1c[nH]c2ccc(O)cc12)C(=O)N[C@@H](Cc1ccc(Cl)cc1)C(=O)N[C@@H](Cc1ccncc1)C(=O)NCCc1cccc2ccccc12` [Compound 11, 4-amino-N-((S)-1-((S)-3-(4-chlorophenyl)-1-((S)-1-(2-(naphthalen-1-yl)ethylamino)-1-oxo-3-(pyridin-4-yl)propan-2-ylamino)-1-oxopropan-2-ylamino)-3-(5-hydroxy-1H-indol-3-yl)-1-oxopropan-2-yl)butanamide], the Ki at EphA4 LBD [2] was ≥ 5 µM.
For `NCCCC(=O)N[C@@H](Cc1c[nH]c2ccc(O)cc12)C(=O)N[C@@H](Cc1ccc(Cl)cc1)C(=O)N[C@@H](Cc1ccncc1)C(=O)NCCc1c[nH]c2ccc(F)cc12` [Compound 6, 4-amino-N-((S)-1-((S)-3-(4-chlorophenyl)-1-((S)-1-(2-(5-fluoro-1H-indol-3-yl)ethylamino)-1-oxo-3-(pyridin-4-yl)propan-2-ylamino)-1-oxopropan-2-ylamino)-3-(5-hydroxy-1H-indol-3-yl)-1-oxopropan-2-yl)butanamide], the Ki on EphA4 LBD [2] lay in the range of 1 to 5 µM.
As to `COc1ccc2[nH]cc(CCNC(=O)[C@H](Cc3ccncc3)NC(=O)[C@H](Cc3ccc(Cl)cc3)NC(=O)[C@H](Cc3c[nH]c4ccc(O)cc34)NC(=O)CCCN)c2c1` [Compound 7, 4-amino-N-((S)-1-((S)-3-(4-chlorophenyl)-1-((S)-1-(2-(5-methoxy-1H-indol-3-yl)ethylamino)-1-oxo-3-(pyridin-4-yl)propan-2-ylamino)-1-oxopropan-2-ylamino)-3-(5-hydroxy-1H-indol-3-yl)-1-oxopropan-2-yl)butanamide], the “Binding to the EphA2 receptor by ITC” value at EphA2 receptor was “not observed”. In addition, the “Signs of toxicity compared to control mice” value in the data set on SOD1(G93A)-mutant mice [4] (30 mg/Kg daily i.p. for several weeks) was “no adverse sign of toxicity were observed”. In the data set with SOD1(G93A)-mutant mice [4] (30 mg/Kg daily i.p.), the “Survival in pilot study” value was “increased survival”. The “Binding exchange regime by NMR” value at 15N-labeled EphA4-LBD is listed as “slow exchange in the NMR time scale”. Further, in the data set on SOD1(G93A)-mutant mice [5] (30 mg/Kg i.p. daily in saline), the “Effect on disease onset” value is given as “without affecting the disease onset”. The “Kaplan-Meier survival compared to control mice” value in the data set on SOD1(G93A)-mutant mice [5] (30 mg/kg daily i.p.) is “increased survival”. Moreover, the “Average survival time from disease onset to end point” value in the data set on SOD1(G93A)-mutant mice [5] (30 mg/kg daily i.p. from postnatal day 60, mean±SD, control 28.2±4.2 days, p<0.01) was found to be 38.6 ± 5.7 days. The compound further showed an Average life span with SOD1(G93A)-mutant mice [5] (30 mg/kg daily i.p. from postnatal day 60, n=12, mean±SD, control 134.3±7.2 days, p<0.01) of 142.8 ± 6.9 days.
For `COc1ccc2c(CCNC(=O)[C@H](Cc3ccncc3)NC(=O)[C@H](Cc3ccc(Cl)cc3)NC(=O)[C@H](Cc3c[nH]c4ccc(O)cc34)NC(=O)CCCN)c[nH]c2c1` [Compound 10, 4-amino-N-((S)-1-((S)-3-(4-chlorophenyl)-1-((S)-1-(2-(6-methoxy-1H-indol-3-yl)ethylamino)-1-oxo-3-(pyridin-4-yl)propan-2-ylamino)-1-oxopropan-2-ylamino)-3-(5-hydroxy-1H-indol-3-yl)-1-oxopropan-2-yl)butanamide], the Ki on EphA4 LBD [2] is 1 to 5 µM. Besides, the Kd at EphA4 LBD [3] was < 1 µM.
For the compound “Compound 7: 4-amino-N-((S)-1-((S)-3-(4-chlorophenyl)-1-((S)-1-(2-(5-methoxy-1H-indol-3-yl)ethylamino)-1-oxo-3-(pyridin-4-yl)propan-2-ylamino)-1-oxopropan-2-ylamino)-3-(5-hydroxy-1H-indol-3-yl)-1-oxopropan-2-yl)butanamide (peptide)”, the Kd in [6] is 0.45 µM; with EphA4-LBD mutant 159A, 9.09 µM; with EphA4-LBD mutant 159G it was 3.66 µM; in data set [8], < 1 µM. This compound gave a Ki in [7] of 0.5 to 0.66 µM.
